Results reported in article PMC4450297, “Screening Active Compounds from Garcinia Species Native to China Reveals Novel Compounds Targeting the STAT/JAK Signaling Pathway” (BioMed Research International, 2015).

How the values were obtained:
Test in all cases: Cell panel screen (CellTiter-Glo)
Format in all cases: cell-based, human
A498 = A498 (listed under Lung), 20 micromolar, 72 hrs
Experimental: (§1) All cells were obtained from the cell bank of the American Type Culture Collection (ATCC) and cultured in the supplier's recommended media supplemented with 10% FBS. The cell panel screen was measured using the CellTiter-Glo assay (Promega, Madison, WI) following a standard protocol. Briefly, cancer cells were seeded in 96-well plates and cultured overnight at 37°C with or without 5% CO2 in an incubator. Each compound was dissolved with limited DMSO and diluted to a certain concentration with culture medium and then added to the corresponding well of the cell plate. The final concentration of compound was 20 μM. The control cells (without treatment) received the same amount of DMSO and were incubated under the same conditions. After 72 h cultivation, 100 μL of the CellTiter-Glo reagent was added directly to each well for 10-minute incubation. The plate was then read on a FlexStation 3 microplate luminometer (Molecular Devices, USA) to monitor the luminescence signal generated by the luciferase-catalyzed reaction of luciferin and ATP. The percent of growth inhibition was calculated using the following formula: (untreated cells − treated cells)/(untreated cells − background without cells) ∗ 100.

A704 = A704 (Kidney), 20 micromolar, 72 hrs
Experimental: as §1

BT-474 = BT-474 (Breast), 20 micromolar, 72 hrs
Experimental: as §1

BT-549 = BT-549 (Breast), 20 micromolar, 72 hrs
Experimental: as §1

Bel-7402 = Bel-7402 (Liver), 20 micromolar, 72 hrs
Experimental: as §1

C3A = C3A (Liver), 20 micromolar, 72 hrs
Experimental: as §1

C8166 = C8166 (Leukemia), 20 micromolar, 72 hrs
Experimental: as §1

CCF-STTG1 = CCF-STTG1 (Brain), 20 micromolar, 72 hrs
Experimental: as §1

CW-2 = CW-2 (Colon), 20 micromolar, 72 hrs
Experimental: as §1

ChaGo-K-1 = ChaGo-K-1 (Lung), 20 micromolar, 72 hrs
Experimental: as §1

Colo 205 = conditions: Colo 205, 20 micromolar, 72 hrs
Experimental: as §1

HCC1395 = HCC1395 (Breast), 20 micromolar, 72 hrs
Experimental: as §1

HCC1569 = HCC1569 (Breast), 20 micromolar, 72 hrs
Experimental: as §1

HCC1599 = HCC1599 (Breast), 20 micromolar, 72 hrs
Experimental: as §1

HCC1937 = HCC1937 (Breast), 20 micromolar, 72 hrs
Experimental: as §1

HEC-1-A = HEC-1-A (Uterus), 20 micromolar, 72 hrs
Experimental: as §1

HGC-27 = HGC-27 (Stomach), 20 micromolar, 72 hrs
Experimental: as §1

HPAF-II = HPAF-II (Pancreas), 20 micromolar, 72 hrs
Experimental: as §1

HT-1197 = HT-1197 (Urinary bladder), 20 micromolar, 72 hrs
Experimental: as §1

J82 = J82 (Urinary bladder), 20 micromolar, 72 hrs
Experimental: as §1

M059J = M059J (Brain), 20 micromolar, 72 hrs
Experimental: as §1

MSTO-211-H = MSTO-211-H (Lung), 20 micromolar, 72 hrs
Experimental: as §1

NCI-H1623 = NCI-H1623 (Lung), 20 micromolar, 72 hrs
Experimental: as §1

NCI-H1694 = NCI-H1694 (Lung), 20 micromolar, 72 hrs
Experimental: as §1

NCI-H1770 = NCI-H1770 (Lung), 20 micromolar, 72 hrs
Experimental: as §1

NCI-H2347 = NCI-H2347 (Lung), 20 micromolar, 72 hrs
Experimental: as §1

NCI-H2405 = NCI-H2405 (Lung), 20 micromolar, 72 hrs
Experimental: as §1

NCI-H28 = NCI-H28 (Lung), 20 micromolar, 72 hrs
Experimental: as §1

NCI-H524 = NCI-H524 (Lung), 20 micromolar, 72 hrs
Experimental: as §1

Panc 03.27 = Panc 03.27 (Pancreas), 20 micromolar, 72 hrs
Experimental: as §1

RL95 = RL95 (Uterus), 20 micromolar, 72 hrs
Experimental: as §1

SW13 = SW13 (Adrenal gland), 20 micromolar, 72 hrs
Experimental: as §1

T47D = T47D (Breast), 20 micromolar, 72 hrs
Experimental: as §1

T98G = T98G (Brain), 20 micromolar, 72 hrs
Experimental: as §1

TCCSUP = TCCSUP (Urinary bladder), 20 micromolar, 72 hrs
Experimental: as §1

ZR-75-30 = ZR-75-30 (Breast), 20 micromolar, 72 hrs
Experimental: as §1

CC(C)=CCc1c2c(c(O)c3c(=O)c4c(CC=C(C)C)c(O)c(O)cc4oc13)C=CC(C)(C)O2 [bn-4, Bannaxanthone D]
Percent Inhibition (A498): 84% | Percent Inhibition (A704): 94% | Percent Inhibition (BT-474): 83% | Percent Inhibition (BT-549): 96% | Percent Inhibition (Bel-7402): 94% | Percent Inhibition (C3A): 63% | Percent Inhibition (C8166): 96% | Percent Inhibition (CCF-STTG1): 86% | Percent Inhibition (CW-2): 97% | Percent Inhibition (ChaGo-K-1): 93% | Percent Inhibition (Colo 205): 93% | Percent Inhibition (HCC1395): 96% | Percent Inhibition (HCC1569): 92% | Percent Inhibition (HCC1599): 97% | Percent Inhibition (HCC1937): 89% | Percent Inhibition (HEC-1-A): 76% | Percent Inhibition (HGC-27): 86% | Percent Inhibition (HPAF-II): 73% | Percent Inhibition (HT-1197): 89% | Percent Inhibition (J82): 94% | Percent Inhibition (M059J): 90% | Percent Inhibition (MSTO-211-H): 94% | Percent Inhibition (NCI-H1623): 80% | Percent Inhibition (NCI-H1694): 97% | Percent Inhibition (NCI-H1770): 75% | Percent Inhibition (NCI-H2347): 53% | Percent Inhibition (NCI-H2405): 92% | Percent Inhibition (NCI-H28): 85% | Percent Inhibition (NCI-H524): 98% | Percent Inhibition (Panc 03.27): 88% | Percent Inhibition (RL95): 96% | Percent Inhibition (SW13): 94% | Percent Inhibition (T47D): 80% | Percent Inhibition (T98G): 97% | Percent Inhibition (TCCSUP): 92% | Percent Inhibition (ZR-75-30): 81%

COc1cc(O)c2c(=O)c3cc(CC=C(C)C)c(O)c(O)c3oc2c1CC=C(C)C [Go-15]
Percent Inhibition (A498): 78% | Percent Inhibition (A704): 92% | Percent Inhibition (BT-474): 82% | Percent Inhibition (BT-549): 87% | Percent Inhibition (Bel-7402): 64% | Percent Inhibition (C3A): 60% | Percent Inhibition (C8166): 93% | Percent Inhibition (CCF-STTG1): 84% | Percent Inhibition (CW-2): 96% | Percent Inhibition (ChaGo-K-1): 11% | Percent Inhibition (Colo 205): 89% | Percent Inhibition (HCC1395): 25% | Percent Inhibition (HCC1569): 86% | Percent Inhibition (HCC1599): 62% | Percent Inhibition (HCC1937): 85% | Percent Inhibition (HEC-1-A): 67% | Percent Inhibition (HGC-27): 98% | Percent Inhibition (HPAF-II): 72% | Percent Inhibition (HT-1197): 51% | Percent Inhibition (J82): 74% | Percent Inhibition (M059J): 88% | Percent Inhibition (MSTO-211-H): 69% | Percent Inhibition (NCI-H1623): 78% | Percent Inhibition (NCI-H1694): 97% | Percent Inhibition (NCI-H1770): 75% | Percent Inhibition (NCI-H2347): 51% | Percent Inhibition (NCI-H2405): 50% | Percent Inhibition (NCI-H28): 74% | Percent Inhibition (NCI-H524): 98% | Percent Inhibition (Panc 03.27): 86% | Percent Inhibition (RL95): 94% | Percent Inhibition (SW13): 95% | Percent Inhibition (T47D): 70% | Percent Inhibition (T98G): 98% | Percent Inhibition (TCCSUP): 88% | Percent Inhibition (ZR-75-30): 83%

COc1cc(O)c2c(=O)c3ccc(O)c(O)c3oc2c1CC=C(C)C [gl-17]
Percent Inhibition (A498): 75% | Percent Inhibition (A704): 42% | Percent Inhibition (BT-474): 89% | Percent Inhibition (BT-549): 65% | Percent Inhibition (Bel-7402): 60% | Percent Inhibition (C3A): 89% | Percent Inhibition (C8166): 90% | Percent Inhibition (CCF-STTG1): 74% | Percent Inhibition (CW-2): 96% | Percent Inhibition (ChaGo-K-1): 87% | Percent Inhibition (Colo 205): 97% | Percent Inhibition (HCC1395): 89% | Percent Inhibition (HCC1569): 74% | Percent Inhibition (HCC1599): 93% | Percent Inhibition (HCC1937): 83% | Percent Inhibition (HEC-1-A): 76% | Percent Inhibition (HGC-27): 92% | Percent Inhibition (HPAF-II): 89% | Percent Inhibition (HT-1197): 95% | Percent Inhibition (J82): 88% | Percent Inhibition (M059J): 91% | Percent Inhibition (MSTO-211-H): 79% | Percent Inhibition (NCI-H1623): 41% | Percent Inhibition (NCI-H1694): 98% | Percent Inhibition (NCI-H1770): 40% | Percent Inhibition (NCI-H2347): 86% | Percent Inhibition (NCI-H2405): 19% | Percent Inhibition (NCI-H28): 76% | Percent Inhibition (NCI-H524): 98% | Percent Inhibition (Panc 03.27): 84% | Percent Inhibition (RL95): 87% | Percent Inhibition (SW13): 85% | Percent Inhibition (T47D): 72% | Percent Inhibition (T98G): 85% | Percent Inhibition (TCCSUP): 83% | Percent Inhibition (ZR-75-30): 98%

CC(C)=CCc1c(O)cc(O)c2c1O[C@]13C(=C[C@@H]4C[C@H]1C(C)(C)O[C@@]3(CC=C(C)C)C4=O)C2=O [GB35]
Percent Inhibition (A498): 93% | Percent Inhibition (A704): 99% | Percent Inhibition (BT-474): 99% | Percent Inhibition (BT-549): 100% | Percent Inhibition (Bel-7402): 99% | Percent Inhibition (C3A): 98% | Percent Inhibition (C8166): 99% | Percent Inhibition (CCF-STTG1): 100% | Percent Inhibition (CW-2): 100% | Percent Inhibition (ChaGo-K-1): 99% | Percent Inhibition (Colo 205): 100% | Percent Inhibition (HCC1395): 100% | Percent Inhibition (HCC1569): 100% | Percent Inhibition (HCC1599): 100% | Percent Inhibition (HCC1937): 100% | Percent Inhibition (HEC-1-A): 100% | Percent Inhibition (HGC-27): 100% | Percent Inhibition (HPAF-II): 100% | Percent Inhibition (HT-1197): 96% | Percent Inhibition (J82): 99% | Percent Inhibition (M059J): 100% | Percent Inhibition (MSTO-211-H): 99% | Percent Inhibition (NCI-H1623): 100% | Percent Inhibition (NCI-H1694): 100% | Percent Inhibition (NCI-H1770): 100% | Percent Inhibition (NCI-H2347): 97% | Percent Inhibition (NCI-H2405): 99% | Percent Inhibition (NCI-H28): 93% | Percent Inhibition (NCI-H524): 100% | Percent Inhibition (Panc 03.27): 99% | Percent Inhibition (RL95): 100% | Percent Inhibition (SW13): 100% | Percent Inhibition (T47D): 100% | Percent Inhibition (T98G): 100% | Percent Inhibition (TCCSUP): 100% | Percent Inhibition (ZR-75-30): 100%
